Reference: article PMC4818757, “Small molecule inhibitors of the Dishevelled‐CXXC5 interaction are new drug candidates for bone anabolic osteoporosis therapy” (EMBO Molecular Medicine, 2016)
Where two headings read alike, the source gives them in different places.

Tests used:
[1] = tested on: TA-98
Source text: (§1) Appendix Table S3. Bacterial reverse mutation assay with KY-02327
(§2) a Number of revertant colonies of treated plate/Number of revertant colonies of
(§3) vehicle control plate (Maron & Ames, 1983).
(§4) b Negative control. Vehicle: DMSO

[2] = tested on: TA-100
Source text: as §1, §2, §3, §4

[3] = target: Human Ether-à-go-go Related Gene (hERG) potassium channel (Homo sapiens, UniProt Q12809); assay: hERG binding assay (fluorescence polarization)
Chain of Human Ether-à-go-go Related Gene (hERG) potassium channel (Q12809 whole entry): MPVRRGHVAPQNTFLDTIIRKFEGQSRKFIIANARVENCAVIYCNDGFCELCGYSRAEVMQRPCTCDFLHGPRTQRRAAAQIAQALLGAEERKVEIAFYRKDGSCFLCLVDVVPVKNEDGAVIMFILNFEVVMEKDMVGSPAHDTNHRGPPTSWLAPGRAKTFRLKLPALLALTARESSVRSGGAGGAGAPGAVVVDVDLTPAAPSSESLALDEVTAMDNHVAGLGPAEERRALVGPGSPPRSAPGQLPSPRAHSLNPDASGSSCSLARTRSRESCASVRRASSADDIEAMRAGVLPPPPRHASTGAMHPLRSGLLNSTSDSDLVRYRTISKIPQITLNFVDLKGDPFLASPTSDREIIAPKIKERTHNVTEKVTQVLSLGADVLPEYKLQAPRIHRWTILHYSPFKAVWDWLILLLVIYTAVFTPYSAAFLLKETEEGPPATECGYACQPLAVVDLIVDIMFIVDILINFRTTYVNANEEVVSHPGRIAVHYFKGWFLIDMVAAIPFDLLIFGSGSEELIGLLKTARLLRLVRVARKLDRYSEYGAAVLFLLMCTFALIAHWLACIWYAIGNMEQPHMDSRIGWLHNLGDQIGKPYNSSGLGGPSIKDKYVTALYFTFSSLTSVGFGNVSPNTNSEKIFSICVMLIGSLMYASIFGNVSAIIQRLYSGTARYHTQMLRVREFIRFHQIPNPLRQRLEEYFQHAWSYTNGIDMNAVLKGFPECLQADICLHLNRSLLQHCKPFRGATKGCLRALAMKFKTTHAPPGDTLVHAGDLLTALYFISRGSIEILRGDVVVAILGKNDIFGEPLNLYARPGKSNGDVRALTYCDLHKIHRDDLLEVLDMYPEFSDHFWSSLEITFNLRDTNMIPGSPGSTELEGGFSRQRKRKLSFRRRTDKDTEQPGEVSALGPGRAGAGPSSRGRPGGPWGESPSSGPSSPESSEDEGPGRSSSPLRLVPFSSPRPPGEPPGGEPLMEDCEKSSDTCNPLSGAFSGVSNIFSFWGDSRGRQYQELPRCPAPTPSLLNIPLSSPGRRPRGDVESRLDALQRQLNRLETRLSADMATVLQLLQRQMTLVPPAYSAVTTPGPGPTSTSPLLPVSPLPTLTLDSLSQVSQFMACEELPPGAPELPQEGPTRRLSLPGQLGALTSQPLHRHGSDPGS

[4] = target: hERG potassium channel (Homo sapiens, UniProt Q12809); assay: hERG binding assay (fluorescence polarization); conditions: human; 10 µM compound; fluorescence polarization
Chain of hERG potassium channel (Q12809 whole entry): as above

[5] = target: CYP3A4 (Homo sapiens, UniProt P08684); assay: in vitro; conditions: probe fluorogenic P450 substrates
Chain of CYP3A4 (P08684 whole entry): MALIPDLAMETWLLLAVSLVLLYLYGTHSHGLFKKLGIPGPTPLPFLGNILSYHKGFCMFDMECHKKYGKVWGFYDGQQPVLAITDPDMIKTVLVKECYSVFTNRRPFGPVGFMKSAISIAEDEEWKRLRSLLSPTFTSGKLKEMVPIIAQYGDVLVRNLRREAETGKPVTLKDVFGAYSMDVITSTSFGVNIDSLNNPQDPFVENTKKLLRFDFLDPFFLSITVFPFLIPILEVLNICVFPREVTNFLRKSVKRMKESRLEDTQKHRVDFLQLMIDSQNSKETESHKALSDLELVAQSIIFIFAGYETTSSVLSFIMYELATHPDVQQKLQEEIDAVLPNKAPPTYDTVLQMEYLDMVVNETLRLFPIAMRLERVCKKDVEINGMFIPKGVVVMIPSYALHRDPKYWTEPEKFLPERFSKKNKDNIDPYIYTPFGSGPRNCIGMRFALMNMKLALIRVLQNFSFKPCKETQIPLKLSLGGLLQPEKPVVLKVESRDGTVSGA

[6] = tested on: MC3T3E1 cells; assay: β-catenin and Runx2 immunoblot/immunofluorescence in MC3T3E1 cells; type: cell-based, murine; conditions: 2 days, dose‐dependent
Method: Figure 5 Effects of KY‐02327 on Wnt/β‐catenin pathway and osteoblast differentiation in osteoblasts • A MC3T3E1 cells were transfected with pTOPFLASH together with pCMV‐β‐gal. After 24 h, the cells were treated with indicated dose of KY‐02327 for 2 days. The luciferase activities of whole‐cell lysates were measured and normalized with β‐galactosidase activities. (n = 3) • B, C MC3T3E1 cells were treated with indicated concentrations of KY‐02327 for 2 days. β‐Catenin and α‐tubulin were detected by immunoblot (B) or immunofluorescence (C) analyses. Nuclei were counterstained with DAPI (C, blue). Scale bars, 100 μm. • D MC3T3E1 cells were treated with indicated concentrations of KY‐02327 for 14 days. The mRNA level of collagen 1a (Col1a) was measured by quantitative real‐time PCR (qRT–PCR). (n = 3) • E MC3T3E1 cells were treated with indicated concentrations of KY‐02327 for 21 days. The mRNA level of osteocalcin (OCN) was measured by qRT–PCR. (n = 3) Data Information: For A, D, and E, the data are the mean ± s.d. (error bars), and significance was assessed using unpaired Student's t‐test. […]

[7] = target: T1, Cytochrome P450 (CYP) 1A2 (Homo sapiens, UniProt P05177); assay: Cytochrome P450 inhibition assay, 1A2; conditions: 10 μM; 1A2, C29 and 3A4 together
T1 sequence (P05177 1-516): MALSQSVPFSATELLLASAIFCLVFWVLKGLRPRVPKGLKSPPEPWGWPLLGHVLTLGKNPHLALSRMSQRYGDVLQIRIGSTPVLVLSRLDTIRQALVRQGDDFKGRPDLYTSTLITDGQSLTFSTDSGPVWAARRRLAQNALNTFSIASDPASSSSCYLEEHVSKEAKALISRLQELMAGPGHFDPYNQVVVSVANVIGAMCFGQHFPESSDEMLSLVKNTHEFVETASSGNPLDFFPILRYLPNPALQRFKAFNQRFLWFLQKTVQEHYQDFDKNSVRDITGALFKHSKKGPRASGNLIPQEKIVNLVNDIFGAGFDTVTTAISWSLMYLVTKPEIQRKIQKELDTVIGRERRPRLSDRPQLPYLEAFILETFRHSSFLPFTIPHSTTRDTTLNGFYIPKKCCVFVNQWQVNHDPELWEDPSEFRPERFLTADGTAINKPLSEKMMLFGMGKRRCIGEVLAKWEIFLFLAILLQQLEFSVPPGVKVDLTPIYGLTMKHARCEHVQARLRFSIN

[8] = target: T2, Dvl PDZ domain (Homo sapiens, UniProt O14640); assay: Surface plasmon resonance; type: binding
T2 construct: plasmid DNA encoding Dvl-1247- 341 (the Dvl PDZ domain); His-tag (TEV-cleavable) (cleaved yes); made in house; host or cells: E. coli BL21 (DE3)
T2 sequence (O14640 247-341 limits assumed): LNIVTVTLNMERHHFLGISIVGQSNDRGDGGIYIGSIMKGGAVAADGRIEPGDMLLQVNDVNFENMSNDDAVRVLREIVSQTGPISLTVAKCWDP
Method: Studies on the interaction between compounds and Dvl PDZ domain were performed by surface plasmon resonance spectroscopy using the ProteOn™ XPR36 protein interaction array system (Bio‐Rad Laboratories, Inc., Hercules, CA). Purified Dvl PDZ domain was immobilized on a sensor chip, and then, various concentration of KY‐02327 in ProteOn PBS/Tween running buffer (PBS, pH 7.4 with 0.05% Tween 20) was flowed over the chip at a flow rate of 100 μl/min. The refractive index reflecting the mass concentration on the sensor surface is measured according to the manufacturer's instruction. Data were analyzed using ProteOn Manager Software 2.0 (Bio‐Rad Laboratories, Inc.).

[9] = tested on: normal or cancer cells derived from various tissues; assay: MTT assay on various normal or cancer cells; type: cell-based
Method: (amino acids 1-34) was subcutaneously injected into the Sham-operated
(Sham) or ovariectomized (OVX) mice on 5 sequential days per week for 4 weeks [n =4]. During treatment, the weights of each mouse were measured and recorded every week (A). After 4 weeks treatment, mice were scarified and their organs were subjected to histological analyses.
Hematoxylin and Eosin staining of liver (B), lung (C), and spleen (D).
E Various cells were treated with DMSO or 0.1, 1, or 10 µ M KY-02327.
After 48 hours, cells were subjected to an MTT assay (OD590 reading) to measure cell viability. NSC: neural stem cell, OB: osteoblast, MSC: mesenchymal stem cell. The data are the mean ± s.d. (error bars). [n =3]

CCOC(=O)c1cc2cc(O)ccc2n1CC(=O)NCCN1CCCCC1 [KY‐02327]
Factor (revertant colonies treated plate / vehicle control plate) ([1]; TA-98, Without S-9 mix): 1.0 | Revertant colonies/plate (Mean) ([1]; TA-98, Without S-9 mix, dose (g/plate): KY-02327 1000, 2-NF 1): 19 colonies/plate | genetic toxicity in bacterial reverse mutation assay ([1]; TA-98 and TA-100): no genetic toxicity | Factor (revertant colonies treated plate / vehicle control plate) ([2]; TA-100, With S-9 mix): 1.0 | Revertant colonies/plate (Mean) ([2]; TA-100, With S-9 mix, dose (g/plate): KY-02327 1000, B.P 2): 117 ± 8 colonies/plate | Factor (revertant colonies treated plate / vehicle control plate) ([2]; TA-100, Without S-9 mix): 1.0 | Revertant colonies/plate (Mean) ([2]; TA-100, Without S-9 mix, dose (g/plate): KY-02327 1000, S.A 1): 123 ± 6 colonies/plate | cardiotoxicity (hERG potassium channel inhibition test) [3]: did not show any significant cardiotoxicity | inhibition at 10 µM [4]: 10.9 ± 2.07% | inhibition at 10 µM [5]: 0% | β‐catenin protein level together with Runx2, nuclear β‐catenin [6]: increased | inhibitory effect on the liver enzymes (cytochrome P450) [7]: no inhibitory effect | binding to Dvl PDZ domain by surface plasmon resonance [8]: binds with Dvl PDZ domain in a dose‐dependent manner | toxic effect on cell viability (MTT) ([9]; 0.1, 1, or 10 M, 48 hours): no significant toxic effect | proliferation of MC3T3E1 cells (MTT) ([9]; MC3T3E1): did not significantly affect | proliferation of murine primary osteoblasts (OB) ([9]; OB): unaffected
